{"source": "patent US20110262490A1", "about": "“POLYMER-AGENT CONJUGATES, PARTICLES, COMPOSITIONS, AND RELATED METHODS OF USE” (priority 2009, published 2011)", "key": {"[1]": {"assay": "Tolerability in normal male C57BL/6 non-tumor-bearing mice (Example 47)", "format": "in vivo, mouse", "conditions": "for Ataxia: n=5", "experimental": "Treatments were administered intravenously on a q7dx2 schedule, i.e., two treatments seven days apart (the first treatment was on Day one). The study ended on Day 14, six days after the 2nd treatment. Blood was collected for complete blood count (CBC) and serum chemistry. Leg muscles were collected so that nerve degeneration could be assessed from the sciatic nerve."}, "B16.F10 tumor [2]": {"tested_on": "B16.F10 tumor", "assay": "Efficacy and tolerability in mouse melanoma model B16.F10 (Example 58)", "procedure": "B16.F10 cells were grown in culture to 85-90% confluency in MEM-alpha medium supplemented with 10% fetal bovine serum (FBS) and 1% penicillin/streptomycin. Cells were removed from the culture flask using 0.05% trypsin (passage=4), re-suspended in PBS (density=10×10^6 cells/mL) and were implanted subcutaneously (1×10^6 cells in 100 μL MEM-alpha medium/mouse) into the right flank of male C57BL/6 mice on day 1.\nBody weight and tumor volume were measured three times a week. In addition, animals were also monitored for any morbidity and adverse effects three times a week.\nTumor volume was calculated with (width×width×length)/2 mm^3 formula. Efficacy was determined by tumor growth inhibition (TGI), tumor growth delay (TGD) and survival. Tumor growth inhibition (TGI) is represented as % and calculated as (1−(treated tumor volume/control tumor volume))×100 when the control group mean tumor volume reached ≧3000 mm^3. Tumor growth delay (TGD) is calculated by subtracting the day when the vehicle treated group reached the maximum tumor size 3000 mm^3 from the day when the treatment group tumor size reached 3000 mm^3. The criterion at which a mouse was removed from the study was tumor volume ≧3000 mm^3."}, "B16.F10 tumor [3]": {"tested_on": "B16.F10 tumor", "assay": "Efficacy and tolerability in mouse melanoma model B16.F10 (Example 61)", "procedure": "Briefly, ATP and oxygen in viable cells reduce luciferin to oxyluciferin in the presence of luciferase to produce energy in the form of light. B16.F10 cells were grown in culture to 85-90% confluency in MEM-alpha medium supplemented with fetal bovine serum (FBS) and 1% penicillin/streptomycin. Cells were removed from the flask using 0.05% trypsin (passage=4), re-suspended in PBS (density=10×10^6 cells/mL) and were implanted subcutaneously (1×10^6 cells in 100 μL PBS/mouse) into the right flank of male C57BL/6 mice on day 1.\nThe treatments were administered IV into the tail vein at a dose volume of 10 ml/kg, beginning on post-implantation day 5, when the mean tumor volume was ca. 60 mm^3 Animals were monitored for any morbidity and adverse effects three times a week. In addition, body weight and tumor volume were also measured three times a week.\nTumor volume was calculated with (width×width×length)/2 mm^3 formula. Efficacy was determined by tumor growth inhibition (TGI), tumor growth delay (TGD) and survival. Tumor growth inhibition (TGI) is represented as % and calculated as (1−(treated tumor volume/control tumor volume))×100 when the control group mean tumor volume reached ≧3000 mm^3 Tumor growth delay (TGD) is calculated by subtracting the day when the vehicle treated group reached the maximum tumor size 3000 mm^3 from the day when the treatment group tumor size reached 3000 mm^3. The criterion at which a mouse was removed from the study was tumor volume ≧3000 mm^3."}, "H1299 tumor": {"tested_on": "H1299 tumor", "assay": "Efficacy and tolerability in non-small cell lung carcinoma model H1299 (Example 60)", "conditions": "for Tumor growth inhibition (% TGI): 30 mg/kg IV 1/wk×2, 30 mg/kg", "procedure": "H1299 cells were grown in culture to 85-90% confluency in RPMI medium supplemented with 10% fetal bovine serum (FBS), 1% glutamine and 1% penicillin/streptomycin. Cells were removed from the culture flask using 0.05% trypsin (passage=4), re-suspended in RPMI medium (density=50×10^6 cells/mL) and were implanted subcutaneously (5×10^6 cells in 100 μL RPMI medium/mouse) into the mammary fat pad area of male nu/nu mice on day 1.\nThe treatments were administered IV into the tail vein at a dose volume of 10 and 20 mL/kg for 30 and 60 mg/kg respectively, beginning on post-implantation day 30 when the mean tumor volume was ca. 170 mm^3 (small tumor group), and on day 37 when the mean tumor volume was ca. 440 mm^3 (large tumor group). Body weight and tumor volume were measured for three times a week during the dosing period and twice a week thereafter. In addition, animals were also monitored for any morbidity and adverse effects for three times a week during the dosing period and twice a week thereafter.\nTumor volume was calculated with (width×width×length)/2 mm^3 formula. Efficacy was determined by tumor growth inhibition (TGI), tumor growth delay (TGD) and survival. Tumor growth inhibition (TGI) is represented as % and calculated as (1−(treated tumor volume/control tumor volume))×100 when the control group mean tumor volume reached ≧1000 mm^3 Tumor growth delay (TGD) is calculated by subtracting the day when the vehicle treated group reached the maximum tumor size 1000 mm^3 from the day when the treatment group tumor size reached 1000 mm^3."}, "[4]": {"conditions": "30 mg/kg IV 1/wk×3, listed as free docetaxel"}, "[5]": {"conditions": "large tumor group, 30 mg/kg 1/wk×2"}, "[6]": {"conditions": "large tumor group, 60 mg/kg 1/wk×2"}, "[7]": {"conditions": "small tumor group, 30 mg/kg 1/wk×2"}}, "note": "Where “and” joins values, the source holds several entries; their conditions need not be identical. Identical values can stand only once.", "data": [{"molecule": "CC(=O)O[C@@]12CO[C@@H]1C[C@H](O)[C@@]1(C)C(=O)[C@H](O)C3=C(C)[C@@H](OC(=O)[C@H](O)[C@@H](NC(=O)OC(C)(C)C)c4ccccc4)C[C@@](O)([C@@H](OC(=O)c4ccccc4)[C@H]21)C3(C)C", "note": "[Free docetaxel, docetaxel]", "values": [{"measurement": "Body weight above initial on Day 14", "setting": "[1]; 30 mg/kg IV q7dx2", "value": 3, "unit": "%"}, {"measurement": "Mice developing ataxia", "setting": "[1]; 30 mg/kg q7dx2", "value": "no mice"}, {"measurement": "Lymphocyte mean", "setting": "[1]; 30 mg/kg q7dx2, Day 14", "value": 4350, "unit": "cells/μL"}, {"measurement": "Neutrophil mean", "setting": "[1]; 30 mg/kg q7dx2, Day 14", "value": 556, "unit": "cells/μL"}, {"measurement": "WBC # mean", "setting": "[1]; 30 mg/kg q7dx2, Day 14", "value": "5.1 ×1000 cells/μL"}, {"measurement": "Ataxia", "setting": "[1]; 30 mg/kg q7dx2", "value": 0, "unit": "%"}, {"measurement": "Body weight above initial on Day 14", "setting": "[1]; 45 mg/kg IV q7dx2", "value": 2, "unit": "%"}, {"measurement": "Lymphocyte mean", "setting": "[1]; 45 mg/kg q7dx2, Day 14", "value": 6780, "unit": "cells/μL"}, {"measurement": "Mice developing ataxia", "setting": "[1]; 45 mg/kg q7dx2, Day 14", "value": "One mouse"}, {"measurement": "Neutrophil mean", "setting": "[1]; 45 mg/kg q7dx2, Day 14", "value": 752, "unit": "cells/μL"}, {"measurement": "WBC # mean", "setting": "[1]; 45 mg/kg q7dx2, Day 14", "value": "7.8 ×1000 cells/μL"}, {"measurement": "Ataxia", "setting": "[1]; 45 mg/kg q7dx2", "value": 20, "unit": "%"}, {"measurement": "Weight loss after second treatment, by end of study", "setting": "[1]; 60 mg/kg IV q7dx2, Day 14", "value": 19, "unit": "%"}, {"measurement": "Mice developing ataxia", "setting": "[1]; 60 mg/kg q7dx2", "value": "Five out of five mice"}, {"measurement": "Lymphocyte mean", "setting": "[1]; 60 mg/kg q7dx2, Day 14", "value": 5590, "unit": "cells/μL"}, {"measurement": "Neutrophil mean", "setting": "[1]; 60 mg/kg q7dx2, Day 14", "value": 470, "unit": "cells/μL"}, {"measurement": "WBC # mean", "setting": "[1]; 60 mg/kg q7dx2, Day 14", "value": "6.2 ×1000 cells/μL"}, {"measurement": "Ataxia", "setting": "[1]; 60 mg/kg q7dx2", "value": 100, "unit": "%"}, {"measurement": "Effect on serum chemistry parameters", "setting": "[1]; q7dx2", "value": "did not affect any serum chemistry parameter at doses up to 60 mg/kg"}, {"measurement": "Day of 0% survival", "setting": "B16.F10 tumor [2]; 30 mg/kg 1/wk×3", "value": 45, "unit": "days"}, {"measurement": "Day of 50% survival", "setting": "B16.F10 tumor [2]; 30 mg/kg 1/wk×3", "value": 40, "unit": "days"}, {"measurement": "Day mean tumor volume endpoint (≧3000 mm^3) reached", "setting": "B16.F10 tumor [2]; 30 mg/kg IV 1/wk×3", "value": 43, "unit": "days"}, {"measurement": "Increase in TGD", "setting": "B16.F10 tumor [2]; 30 mg/kg IV 1/wk×3", "value": 115, "unit": "%"}, {"measurement": "Maximum body weight loss", "setting": "B16.F10 tumor [2]; 30 mg/kg IV 1/wk×3", "value": 12, "unit": "%"}, {"measurement": "Tumor growth delay (TGD)", "setting": "B16.F10 tumor [2]; 30 mg/kg IV 1/wk×3", "value": 23, "unit": "days"}, {"measurement": "Tumor growth inhibition (% TGI)", "setting": "B16.F10 tumor [2]; 30 mg/kg IV 1/wk×3", "value": 92, "unit": "%"}, {"measurement": "Maximum body weight loss", "setting": "B16.F10 tumor [2]; [4]", "value": "did not cause any significant body weight loss"}, {"measurement": "Tumor growth inhibition (% TGI)", "setting": "B16.F10 tumor [2]; [4]", "value": 92, "unit": "%"}, {"measurement": "Day mean tumor volume endpoint (≧3000 mm^3) reached", "setting": "B16.F10 tumor [3]; 15 mg/kg IV 1/wk×3", "value": 29, "unit": "days"}, {"measurement": "Day of 0% survival", "setting": "B16.F10 tumor [3]; 15 mg/kg IV 1/wk×3", "value": 43, "unit": "days"}, {"measurement": "Day of 50% survival", "setting": "B16.F10 tumor [3]; 15 mg/kg IV 1/wk×3", "value": 29, "unit": "days"}, {"measurement": "Increase in TGD", "setting": "B16.F10 tumor [3]; 15 mg/kg IV 1/wk×3", "value": 45, "unit": "%"}, {"measurement": "Maximum body weight loss", "setting": "B16.F10 tumor [3]; 15 mg/kg IV 1/wk×3", "value": 2, "unit": "%"}, {"measurement": "Tumor growth delay (TGD)", "setting": "B16.F10 tumor [3]; 15 mg/kg IV 1/wk×3", "value": 9, "unit": "days"}, {"measurement": "Tumor growth inhibition (% TGI)", "setting": "B16.F10 tumor [3]; 15 mg/kg IV 1/wk×3", "value": 75, "unit": "%"}, {"measurement": "Tumor growth inhibition (% TGI)", "setting": "B16.F10 tumor [3]; 15 mg/kg IV 1/wk×3, listed as free docetaxel", "value": 75, "unit": "%"}, {"measurement": "Maximum body weight loss", "setting": "B16.F10 tumor [3]; 30 mg/kg IV 1/wk×3", "value": "12% and 14%"}, {"measurement": "Tumor growth delay (TGD)", "setting": "B16.F10 tumor [3]; 30 mg/kg IV 1/wk×3", "value": "23 days and 18 days"}, {"measurement": "Tumor growth inhibition (% TGI)", "setting": "B16.F10 tumor [3]; 30 mg/kg IV 1/wk×3", "value": "92% and 81%"}, {"measurement": "Day mean tumor volume endpoint (≧3000 mm^3) reached", "setting": "B16.F10 tumor [3]; [4]", "value": "43 days and 38 days"}, {"measurement": "Day of 0% survival", "setting": "B16.F10 tumor [3]; [4]", "value": "45 days and 43 days"}, {"measurement": "Day of 50% survival", "setting": "B16.F10 tumor [3]; [4]", "value": "40 days and 36 days"}, {"measurement": "Increase in TGD", "setting": "B16.F10 tumor [3]; [4]", "value": "115% and 90%"}, {"measurement": "Tumor growth delay (TGD)", "setting": "B16.F10 tumor [3]; [4]", "value": "23 days and 18 days"}, {"measurement": "Tumor growth inhibition (% TGI)", "setting": "B16.F10 tumor [3]; [4]", "value": "92% and 81%"}, {"measurement": "Day mean tumor volume endpoint (≧1000 mm^3) reached", "setting": "H1299 tumor; [5]", "value": 63, "unit": "days"}, {"measurement": "Day of 0% survival", "setting": "H1299 tumor; [5]", "value": 80, "unit": "days"}, {"measurement": "Day of 50% survival", "setting": "H1299 tumor; [5]", "value": 61, "unit": "days"}, {"measurement": "Hind limb paralysis", "setting": "H1299 tumor; [5]", "value": "did not cause any significant body weight loss or hind limb paralysis"}, {"measurement": "Increase in TGD", "setting": "H1299 tumor; [5]", "value": 43, "unit": "%"}, {"measurement": "Maximum body weight loss", "setting": "H1299 tumor; [5]", "value": 19, "unit": "%"}, {"measurement": "Tumor growth delay (TGD)", "setting": "H1299 tumor; [5]", "value": 19, "unit": "days"}, {"measurement": "Tumor shrinkage", "setting": "H1299 tumor; [5]", "value": "no tumor shrinkage"}, {"measurement": "Tumor growth inhibition (% TGI)", "setting": "H1299 tumor; large tumor group", "value": 49, "unit": "%"}, {"measurement": "Tumor growth inhibition (% TGI)", "setting": "H1299 tumor; large tumor group, listed as free docetaxel", "value": 49, "unit": "%"}, {"measurement": "Hind limb paralysis", "setting": "H1299 tumor; [6]", "value": "severe hind limb paralysis"}, {"measurement": "Maximum body weight loss", "setting": "H1299 tumor; [6]", "value": "significant body weight loss"}, {"measurement": "Day mean tumor volume endpoint (≧1000 mm^3) reached", "setting": "H1299 tumor; [7]", "value": 61, "unit": "days"}, {"measurement": "Day of 0% survival", "setting": "H1299 tumor; [7]", "value": 68, "unit": "days"}, {"measurement": "Day of 50% survival", "setting": "H1299 tumor; [7]", "value": 56, "unit": "days"}, {"measurement": "Hind limb paralysis", "setting": "H1299 tumor; [7]", "value": "did not cause any significant body weight loss or hind limb paralysis"}]}]}
